Paper PMC6892276 (European Journal of Pharmaceutical Sciences, 2019)

Key:
[1] = CLint in cryopreserved dog hepatocyte suspensions; assay type: in vitro ADME; settings: Beagle
Procedure: (§1) Cells were stored in the vapour phase of liquid nitrogen and thawed as per the supplier's instructions (rapid thawing at 37 °C, followed by centrifugation at 50 ×g for 5 min in thawing medium). Hepatocytes were re-suspended in a small volume of incubation medium (WME buffered with HEPES (final concentration 24 mM) adjusted to pH 7.4). Cell density was estimated using a haemocytometer and light microscope and viability determined according to the trypan blue exclusion method; cells were subsequently diluted to the required concentration in incubation medium. […]
(§2) For the purpose of CLint determination, samples were analysed using an Agilent 1290 Infinity ultra high-performance liquid chromatography (UHPLC) system coupled to an Agilent 6520 Quadrupole Time-of-flight mass spectrometer (Agilent Technologies, Stockport, UK). […]
(§3) In vitro data (parent compound LC-MS response) was fitted to a non-linear single exponential model using the software GraphPad Prism (v6.07, GraphPad Software, Inc., La Jolla, USA) to determine the elimination rate constant (k). CLint in hepatocytes and liver microsomes was calculated using Eqs. […]

[2] = CLint in cryopreserved minipig hepatocyte suspensions; assay type: in vitro ADME; settings: Gottingen
Procedure: as §1, §2, §3

[3] = CLint in cryopreserved rat hepatocyte suspensions; assay type: in vitro ADME; settings: Sprague Dawley, pH 7.4, female
Procedure: as §1, §2, §3

[4] = CLint in human liver microsomes; assay type: in vitro ADME; settings: both sexes, mixed sex, 1 mg/ml, NADPH
Procedure: (§4) All incubations of subcellular fractions and recombinant enzymes were conducted at 37 °C and 800 rpm using a Hamilton Microlab Star liquid handling workstation (Hamilton Robotics (Bonaduz, Switzerland)).
Prior to initiation of the reaction by the addition of NADPH (final concentration 1 mM), an aliquot was removed from each incubation and quenched in ice cold methanol containing internal standard (referred to as T0). NADPH was subsequently added to this solution for matrix matching. The remaining reaction (with addition of NADPH) was allowed to proceed for 60 min. At 0.5, 5, 15, 30 and 60 min aliquots were sampled and quenched as above. Incubations were conducted in singlicate; control incubations (substituting PBS for NADPH) were conducted simultaneously.
as §2, §3
(§5) Unbound CLint (CLint,u) was calculated using Eq. (6).(6) CLint,u=CLint/fu

rCYP3A4 = test: Reaction phenotyping using recombinant CYP, CLint in rCYP3A4; assay type: in vitro ADME, human; settings: scaled with ISEF 1.09 and CYP abundance 137 pmol P450/mg; corrected for fuCYP
Procedure: as §4
Recombinant CYP (100 pmol P450/ml) and control bactosome (at an equivalent protein concentration) were prepared in 100 mM KPB. […] The reaction was initiated by the addition of NADPH (final concentration 1 mM) and allowed to proceed for 20 min. At T0 (see Section 2.4.1), 0.5, 5, 10, 15 and 20 min, an aliquot was removed from each incubation and quenched in ice cold methanol containing internal standard.
CLint in rCYP was calculated using Eq. (3) and scaled to μl/min/mg microsomal protein using Eq. (4).(3) CLintμl/min/pmolP450=V·k/pmol protein (4) CLintμl/min/mgmicrosomal protein=CLintμl/min/pmolP450·ISEF·CYPabundance where ISEF is the Intersystem Extrapolation Factor and CYP abundance is amount of each CYP relative to microsomal protein. For rCYP3A4 an ISEF of 1.09 ([Certara, 2017]) and a CYP abundance of 137 pmol P450/mg microsomal protein ([Certara, 2017]) were used.
as §5

[5] = Protein binding in rCYP (Rapid Equilibrium Dialysis); assay type: in vitro ADME; settings: human, control rCYP 100 pmol/ml, dialysis 4 h at 37 °C, read-out: fuCYP (fraction unbound in rCYP)
Procedure: Samples were removed, matrix matched and quenched with methanol containing internal standard; further processing is as described in Section 2.6.
The fraction unbound (fu) in HLM/rCYP was calculated using Eq. (5).(5) fu=1/1+1/PARreceiver/PARdonor−1 where PAR = Peak Area Ratio of analyte/internal standard.

CYP1A2 = system: CYP1A2; set-up: method as in Bavetsias et al., 2012; settings: ref Bavetsias et al., 2012; read-out: CYP1A2 inhibition IC50; cited from earlier work
CYP2A6 = system: CYP2A6; set-up: method as in Bavetsias et al., 2012; settings: ref Bavetsias et al., 2012; read-out: CYP2A6 inhibition IC50; cited from earlier work
CYP2C9 = system: CYP2C9; set-up: method as in Bavetsias et al., 2012; settings: ref Bavetsias et al., 2012; read-out: CYP2C9 inhibition IC50; cited from earlier work
[6] = system: HCT116 (human colon carcinoma); set-up: method as in Bavetsias et al., 2012; settings: ref Bavetsias et al., 2012; cited from earlier work
[7] = system: MV4-11 (human FLT3-ITD positive AML); set-up: method as in Bavetsias et al., 2012; settings: ref Bavetsias et al., 2012; cited from earlier work
[8] = system: histone H-3 and STAT5 phosphorylation; set-up: method as in Bavetsias et al., 2012; settings: p.o. 50 and 100 mg/kg b.i.d., 4-day mouse PK/PD study; ref Bavetsias et al., 2012; cited from earlier work

Cc1nn(C)cc1-c1nc2c(N3CCN(Cc4ccc(Cl)cc4)CC3)c(Cl)cnc2[nH]1 [CCT241736, 6-Chloro-7-(4-(4-chlorobenzyl)piperazin-1-yl)-2-(1,3-dimethyl-1Hpyrazol-4-yl)-3H-imidazo[4,5-b] pyridine]
hepatocyte CLint at 1 μM ([1]; pH 7.4, female): 3.9 µL/min/1e6 cells
hepatocyte CLint at 1 μM ([1]; pH 7.4, male): 8.4 µL/min/1e6 cells
hepatocyte CLint at 1 μM ([2]; pH 7.4, female): 3.4 µL/min/1e6 cells
hepatocyte CLint at 1 μM ([2]; pH 7.4, male): 7 µL/min/1e6 cells
hepatocyte CLint at 1 μM [3]: 10 µL/min/1e6 cells
microsomal CLint at 1 μM [4]: 7.8 ± 1 µL/min/mg
scaled CLint,u in rCYP3A4 (rCYP3A4): 4078 μl/min/mg microsomal protein
fraction unbound at 4 h, 1 μM [5]: 0.0094
IC50 (CYP1A2): > 10 µM
IC50 (CYP2A6): > 10 µM
IC50 (CYP2C9): > 10 µM
anti-proliferative activity [6]: anti-proliferative activity
anti-proliferative activity [7]: anti-proliferative activity
biomarker modulation (histone H-3 and STAT5 phosphorylation) [8]: biomarker modulation
